# Data published in ChEMBL document CHEMBL5214920, “Emerging impact of triazoles as anti-tubercular agent” (Eur J Med Chem, 2022).
# Tested on: Mycobacterium tuberculosis
# Experiment: Potency index, ratio of isoniazid MIC to test compound MIC for antitubercular activity against multi-drug-resistant Mycobacterium tuberculosis
# Format: functional
# Conditions: not given
row,SMILES,Ratio
1,CO/N=C1/C(=O)C(CCOCCOCCOCCn2cc(CN3C(=O)/C(=N/OC)c4cc(F)ccc43)nn2)c2ccccc21 (configuration not stated),8

# Tested on: Mycobacterium tuberculosis
# Experiment: Antitubercular activity against multi-drug-resistant Mycobacterium tuberculosis assessed as bacterial growth inhibition measured after 7 days by direct susceptibility assay
# Format: functional
# Conditions: 168 h, time 7 day
row,SMILES,MIC [µg/mL]
1,COc1c(N2CCNCC2)c(F)cc2c(=O)c(C(=O)O)cn(C3CC3)c12,2
2,O=C(O)c1cn(C2CC2)c2cc(N3CCN(Cc4cn(CCN5C(=O)Cc6ccccc65)nn4)CC3)c(F)cc2c1=O,0.25
3,CO/N=C1/C(=O)C(CCOCCOCCOCCn2cc(CN3C(=O)/C(=N/OC)c4cc(F)ccc43)nn2)c2ccccc21 (configuration not stated),64
4,O=C(O)c1cn(C2CC2)c2cc(N3CCNCC3)c(F)cc2c1=O [CIPROFLOXACIN],4
5,NNC(=O)c1ccncc1 [ISONIAZID],512
6,CO[C@H]1/C=C/O[C@@]2(C)Oc3c(C)c(O)c4c(O)c(c(/C=N/N5CCN(C)CC5)c(O)c4c3C2=O)NC(=O)/C(C)=C\C=C\[C@H](C)[C@H](O)[C@@H](C)[C@@H](O)[C@@H](C)[C@H](OC(C)=O)[C@@H]1C [RIFAMPIN],64
